Source: ChEMBL document CHEMBL1128255, “Synthesis of 11 beta-[18F]fluoro-5 alpha-dihydrotestosterone and 11 beta-[18F]fluoro-19-nor-5 alpha-dihydrotestosterone: preparation via halofluorination-reduction, receptor binding, and tissue distribution” (J Med Chem, 1995)

Key:
physchem = settings: octanol/water
Description: Partition coefficient (logP)

[1] = target: T1, Androgen receptor (Rattus norvegicus) (UniProt P15207)
T1 sequence (whole entry): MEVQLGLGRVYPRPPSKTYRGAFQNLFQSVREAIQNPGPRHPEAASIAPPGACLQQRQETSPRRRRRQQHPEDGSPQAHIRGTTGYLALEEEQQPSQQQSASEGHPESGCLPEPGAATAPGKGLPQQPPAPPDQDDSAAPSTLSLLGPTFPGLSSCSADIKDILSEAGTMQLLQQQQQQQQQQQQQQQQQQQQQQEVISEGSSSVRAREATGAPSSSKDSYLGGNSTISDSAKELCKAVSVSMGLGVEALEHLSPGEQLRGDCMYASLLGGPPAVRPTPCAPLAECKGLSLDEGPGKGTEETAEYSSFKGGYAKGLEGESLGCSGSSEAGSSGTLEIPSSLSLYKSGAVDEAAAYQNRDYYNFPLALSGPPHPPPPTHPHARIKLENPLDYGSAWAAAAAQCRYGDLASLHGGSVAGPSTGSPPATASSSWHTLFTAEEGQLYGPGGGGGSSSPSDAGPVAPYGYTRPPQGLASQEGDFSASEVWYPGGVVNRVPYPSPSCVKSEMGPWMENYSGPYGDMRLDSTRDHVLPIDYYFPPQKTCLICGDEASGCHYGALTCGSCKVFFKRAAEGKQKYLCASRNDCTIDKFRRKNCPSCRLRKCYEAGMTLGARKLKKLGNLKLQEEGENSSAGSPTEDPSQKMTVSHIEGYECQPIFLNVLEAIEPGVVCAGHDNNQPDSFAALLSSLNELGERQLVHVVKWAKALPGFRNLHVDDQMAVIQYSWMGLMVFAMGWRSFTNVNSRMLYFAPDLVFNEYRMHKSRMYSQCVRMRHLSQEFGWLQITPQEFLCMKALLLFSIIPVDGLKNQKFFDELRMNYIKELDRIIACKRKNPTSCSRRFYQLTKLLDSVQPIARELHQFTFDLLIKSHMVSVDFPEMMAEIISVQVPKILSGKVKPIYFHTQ
Description: Binding selectivity index (BSI) as ratio of RBA for androgen receptor to non-specific binding of R1881

| SMILES | logP (physchem) | BSI [1] |
| --- | --- | --- |
| C[C@]12CC[C@H]3[C@@H](CCC4=CC(=O)CC[C@@]43C)[C@@H]1CC[C@@H]2O [TESTOSTERONE] | 3.45 |  |
| C[C@]12CC[C@H]3[C@@H](CC[C@H]4CC(=O)CC[C@@H]43)[C@@H]1CC[C@@H]2O | 3.85 | 13.7 |
| C[C@]1(O)CC[C@H]2[C@@H]3CCC4=CC(=O)CCC4=C3C=C[C@@]21C [METRIBOLONE] | 3.29 | 100 |
| C[C@]12CC[C@H]3[C@@H](CCC4=CC(=O)CC[C@@H]43)[C@@H]1CC[C@@H]2O [NANDROLONE] | 3.17 |  |
